# Experimental data from BindingDB's records for doi:10.1038/nchembio.2304 (Novartis Institutes for BioMedical Research, 2017).
# Experiments:
# Assay in all cases: HMT Assay
# [1] = target: Histone-arginine methyltransferase CARM1 (Homo sapiens, UniProt Q86X55)
# Method: (§1) All HMT reactions were performed as described previously [Nasveschuk et al., ACS Med. Chem. Lett., 5:378-383].
# [2] = target: Histone-lysine N-methyltransferase EHMT2 (Homo sapiens, UniProt Q96KQ7)
# Method: as §1
# [3] = target: Histone-lysine N-methyltransferase NSD2 (Homo sapiens, UniProt O96028)
# Method: as §1
# [4] = target: Histone-lysine N-methyltransferase SETD2 (Homo sapiens, UniProt Q9BYW2)
# Method: as §1
# [5] = target: Histone-lysine N-methyltransferase SETD7 (Homo sapiens, UniProt Q8WTS6)
# Sequence of Histone-lysine N-methyltransferase SETD7 (Q8WTS6 whole entry): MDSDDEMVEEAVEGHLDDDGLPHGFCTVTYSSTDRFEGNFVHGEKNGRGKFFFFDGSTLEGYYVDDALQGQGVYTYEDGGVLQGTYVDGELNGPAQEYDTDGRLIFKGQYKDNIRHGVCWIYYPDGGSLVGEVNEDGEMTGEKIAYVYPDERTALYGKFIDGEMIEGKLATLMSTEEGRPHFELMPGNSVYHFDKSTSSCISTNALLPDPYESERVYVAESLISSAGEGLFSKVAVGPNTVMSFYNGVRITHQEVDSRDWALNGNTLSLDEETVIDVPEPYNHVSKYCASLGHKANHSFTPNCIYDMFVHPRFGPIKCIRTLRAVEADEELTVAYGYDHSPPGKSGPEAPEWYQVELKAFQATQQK
# Method: as §1
# [6] = target: Histone-lysine N-methyltransferase SETDB1 (Homo sapiens, UniProt Q15047)
# Method: as §1
# [7] = target: Histone-lysine N-methyltransferase SMYD3 (Homo sapiens, UniProt Q9H7B4)
# Method: as §1
# [8] = target: Histone-lysine N-methyltransferase, H3 lysine-79 specific (Homo sapiens, UniProt Q8TEK3)
# Method: as §1
# [9] = target: N-lysine methyltransferase SMYD2 (Homo sapiens, UniProt Q9NRG4)
# Method: as §1
# [10] = target: 5-hydroxytryptamine receptor 1A (Homo sapiens, UniProt P08908)
# [11] = target: Acetylcholine receptor subunit alpha (Homo sapiens, UniProt P02708)
# [12] = target: Alpha-1A adrenergic receptor (Homo sapiens, UniProt P35348)
# D(1A) dopamine receptor = D(1A) dopamine receptor (Homo sapiens, UniProt P21728)
# [13] = target: DNA (cytosine-5)-methyltransferase 1 (Homo sapiens, UniProt P26358)
# Estrogen receptor = Estrogen receptor (Homo sapiens, UniProt P03372)
# [14] = target: T1, Fibroblast growth factor receptor 2 [406-821] (Human, UniProt P21802)
# T1 construct: 406-821
# T1 sequence (P21802 406-821): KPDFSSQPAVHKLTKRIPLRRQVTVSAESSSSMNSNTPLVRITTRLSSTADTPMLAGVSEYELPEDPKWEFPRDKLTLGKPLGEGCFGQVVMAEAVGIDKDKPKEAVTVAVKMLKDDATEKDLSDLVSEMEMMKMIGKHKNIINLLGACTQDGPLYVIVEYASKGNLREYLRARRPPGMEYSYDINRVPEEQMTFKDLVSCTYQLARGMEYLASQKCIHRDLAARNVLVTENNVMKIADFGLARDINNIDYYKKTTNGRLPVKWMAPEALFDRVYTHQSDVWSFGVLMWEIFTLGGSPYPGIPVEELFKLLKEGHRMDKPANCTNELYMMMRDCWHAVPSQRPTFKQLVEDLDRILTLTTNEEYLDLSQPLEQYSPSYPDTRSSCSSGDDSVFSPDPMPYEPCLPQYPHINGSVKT
# [15] = target: T2, Fibroblast growth factor receptor 4 [388-802] (Human, UniProt P22455)
# T2 construct: 388-802
# [16] = target: Gamma-aminobutyric acid receptor subunit alpha-1 (Homo sapiens, UniProt P14867)
# [17] = target: Histone-lysine N-methyltransferase NSD3 (Homo sapiens, UniProt Q9BZ95)
# [18] = target: Histone-lysine N-methyltransferase SUV39H2 (Human, UniProt Q9H5I1)
# [19] = target: T3, Interleukin-1 receptor-associated kinase 1 [184-712] (Human, UniProt P51617)
# T3 construct: 184-712
# [20] = target: Methylosome protein 50/Protein arginine N-methyltransferase 5 (Homo sapiens, UniProt O14744)
# Sequence of Methylosome protein 50/Protein arginine N-methyltransferase 5 (O14744 whole entry): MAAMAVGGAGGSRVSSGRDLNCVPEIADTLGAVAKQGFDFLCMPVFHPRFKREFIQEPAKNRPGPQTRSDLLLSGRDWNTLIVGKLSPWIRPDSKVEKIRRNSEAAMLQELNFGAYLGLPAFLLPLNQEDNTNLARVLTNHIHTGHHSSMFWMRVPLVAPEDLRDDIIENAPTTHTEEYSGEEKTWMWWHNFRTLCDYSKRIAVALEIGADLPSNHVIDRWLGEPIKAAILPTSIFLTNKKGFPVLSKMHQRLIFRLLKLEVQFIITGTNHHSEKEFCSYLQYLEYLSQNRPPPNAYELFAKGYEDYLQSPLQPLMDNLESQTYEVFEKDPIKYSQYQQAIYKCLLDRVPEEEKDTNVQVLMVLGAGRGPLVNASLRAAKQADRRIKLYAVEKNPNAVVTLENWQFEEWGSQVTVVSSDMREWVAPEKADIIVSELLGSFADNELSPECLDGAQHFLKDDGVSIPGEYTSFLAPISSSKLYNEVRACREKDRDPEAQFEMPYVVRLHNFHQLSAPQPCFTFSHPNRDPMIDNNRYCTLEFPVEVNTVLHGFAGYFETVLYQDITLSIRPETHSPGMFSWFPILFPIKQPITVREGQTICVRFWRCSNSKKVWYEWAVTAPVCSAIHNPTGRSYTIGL
# Sequence of Methylosome protein 50/Protein arginine N-methyltransferase 5 (Q9BQA1 whole entry, further chain): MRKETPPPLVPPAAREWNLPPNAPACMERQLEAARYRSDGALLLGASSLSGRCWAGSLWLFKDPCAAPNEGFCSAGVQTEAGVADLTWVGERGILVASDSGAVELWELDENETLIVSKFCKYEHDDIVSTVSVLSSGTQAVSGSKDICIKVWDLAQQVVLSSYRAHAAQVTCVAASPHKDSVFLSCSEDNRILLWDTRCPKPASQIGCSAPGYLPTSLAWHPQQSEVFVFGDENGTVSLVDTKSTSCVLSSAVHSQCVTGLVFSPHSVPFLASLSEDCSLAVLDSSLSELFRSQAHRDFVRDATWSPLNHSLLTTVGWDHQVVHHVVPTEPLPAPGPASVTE
# [21] = target: T4, Mitogen-activated protein kinase kinase kinase 8 [30-404] (Human, UniProt P41279)
# T4 construct: 30-404
# T4 sequence (P41279 30-404): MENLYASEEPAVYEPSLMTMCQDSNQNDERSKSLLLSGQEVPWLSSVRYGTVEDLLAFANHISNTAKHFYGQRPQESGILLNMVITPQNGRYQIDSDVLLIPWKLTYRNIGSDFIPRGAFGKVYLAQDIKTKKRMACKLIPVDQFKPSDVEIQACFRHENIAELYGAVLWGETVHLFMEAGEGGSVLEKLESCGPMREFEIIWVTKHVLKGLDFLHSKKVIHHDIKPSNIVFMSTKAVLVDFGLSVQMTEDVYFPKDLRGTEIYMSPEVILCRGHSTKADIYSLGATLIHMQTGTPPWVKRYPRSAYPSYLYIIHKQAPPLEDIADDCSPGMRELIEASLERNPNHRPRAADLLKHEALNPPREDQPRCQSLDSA
# [22] = target: Mitogen-activated protein kinase kinase kinase kinase 4 (Homo sapiens, UniProt O95819)
# [23] = target: Muscarinic acetylcholine receptor M2 (Homo sapiens, UniProt P08172)
# Sequence of Muscarinic acetylcholine receptor M2 (P08172 whole entry): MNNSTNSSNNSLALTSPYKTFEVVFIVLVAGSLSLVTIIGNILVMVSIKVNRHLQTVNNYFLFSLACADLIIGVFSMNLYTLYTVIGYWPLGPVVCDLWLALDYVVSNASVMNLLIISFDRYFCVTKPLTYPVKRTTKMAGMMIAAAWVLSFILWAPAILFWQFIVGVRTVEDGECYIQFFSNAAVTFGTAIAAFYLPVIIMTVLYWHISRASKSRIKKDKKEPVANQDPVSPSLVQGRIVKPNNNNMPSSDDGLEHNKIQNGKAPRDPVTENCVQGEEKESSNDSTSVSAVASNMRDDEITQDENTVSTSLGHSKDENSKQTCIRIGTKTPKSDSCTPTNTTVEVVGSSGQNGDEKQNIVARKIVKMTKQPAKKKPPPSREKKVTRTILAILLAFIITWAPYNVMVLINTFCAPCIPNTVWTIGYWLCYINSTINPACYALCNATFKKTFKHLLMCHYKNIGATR
# [24] = target: N-lysine methyltransferase SETD6 (Human, UniProt Q8TBK2)
# [25] = target: T5, Protein arginine N-methyltransferase 1 [11-371] (Homo sapiens, UniProt Q99873)
# T5 construct: 11-371
# [26] = target: Protein arginine N-methyltransferase 3 [N508S] (Homo sapiens, UniProt O60678, N508S)
# [27] = target: Protein kinase C alpha type (Homo sapiens, UniProt P17252)
# [28] = target: Protein kinase C theta type (Homo sapiens, UniProt Q04759)
# [29] = target: T6, Receptor-type tyrosine-protein kinase FLT3 [563-993,D835Y] (Human, UniProt P36888, D835Y)
# T6 construct: 563-993
# [30] = target: T7, Rho-associated protein kinase 2 [6-553] (Human, UniProt O75116)
# T7 construct: 6-553
# T7 sequence (O75116 6-553): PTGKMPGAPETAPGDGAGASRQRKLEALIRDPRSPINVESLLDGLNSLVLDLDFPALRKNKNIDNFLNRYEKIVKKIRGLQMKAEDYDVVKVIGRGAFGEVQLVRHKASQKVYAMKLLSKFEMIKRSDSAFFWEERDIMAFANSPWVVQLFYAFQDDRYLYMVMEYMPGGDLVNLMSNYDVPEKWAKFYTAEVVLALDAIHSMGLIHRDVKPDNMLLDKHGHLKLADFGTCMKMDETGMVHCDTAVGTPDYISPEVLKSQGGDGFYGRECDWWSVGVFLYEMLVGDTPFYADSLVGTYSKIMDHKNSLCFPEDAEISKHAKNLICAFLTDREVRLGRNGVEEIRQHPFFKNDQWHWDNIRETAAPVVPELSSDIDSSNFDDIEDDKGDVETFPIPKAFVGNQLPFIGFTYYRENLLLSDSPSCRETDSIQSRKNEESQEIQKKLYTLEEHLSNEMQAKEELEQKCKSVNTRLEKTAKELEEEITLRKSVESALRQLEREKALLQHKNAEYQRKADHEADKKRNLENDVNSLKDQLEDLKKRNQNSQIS
# [31] = target: Serine/threonine-protein kinase 17B (Homo sapiens, UniProt O94768)
# [32] = target: Serine/threonine-protein kinase 4 (Human, UniProt Q13043)
# [33] = target: Sodium-dependent noradrenaline transporter (Homo sapiens, UniProt P23975)
# Sequence of Sodium-dependent noradrenaline transporter (P23975 whole entry): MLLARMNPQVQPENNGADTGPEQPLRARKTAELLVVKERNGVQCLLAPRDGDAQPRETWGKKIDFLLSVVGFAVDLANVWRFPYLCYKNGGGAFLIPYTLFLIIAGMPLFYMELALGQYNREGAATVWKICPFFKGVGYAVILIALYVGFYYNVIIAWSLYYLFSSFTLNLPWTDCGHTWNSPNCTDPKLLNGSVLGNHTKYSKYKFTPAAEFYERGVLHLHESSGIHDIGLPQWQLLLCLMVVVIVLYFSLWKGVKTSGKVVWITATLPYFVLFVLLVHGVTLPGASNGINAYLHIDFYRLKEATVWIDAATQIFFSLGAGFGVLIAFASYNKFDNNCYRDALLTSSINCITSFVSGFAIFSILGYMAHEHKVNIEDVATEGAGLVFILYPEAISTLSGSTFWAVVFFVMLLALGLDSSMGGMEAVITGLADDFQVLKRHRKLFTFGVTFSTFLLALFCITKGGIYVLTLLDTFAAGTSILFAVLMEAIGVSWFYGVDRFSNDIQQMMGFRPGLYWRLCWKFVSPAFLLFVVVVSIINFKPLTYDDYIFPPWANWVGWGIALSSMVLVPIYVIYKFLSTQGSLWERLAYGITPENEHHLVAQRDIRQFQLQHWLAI
# [34] = target: T8, Tyrosine-protein kinase ABL1 [64-515] (Homo sapiens, UniProt P00519)
# T8 construct: 64-515
# [35] = target: Tyrosine-protein kinase BTK (Homo sapiens, UniProt Q06187)
# [36] = target: Tyrosine-protein kinase Lyn (Homo sapiens, UniProt P07948)
# Sequence of Tyrosine-protein kinase Lyn (P07948 whole entry): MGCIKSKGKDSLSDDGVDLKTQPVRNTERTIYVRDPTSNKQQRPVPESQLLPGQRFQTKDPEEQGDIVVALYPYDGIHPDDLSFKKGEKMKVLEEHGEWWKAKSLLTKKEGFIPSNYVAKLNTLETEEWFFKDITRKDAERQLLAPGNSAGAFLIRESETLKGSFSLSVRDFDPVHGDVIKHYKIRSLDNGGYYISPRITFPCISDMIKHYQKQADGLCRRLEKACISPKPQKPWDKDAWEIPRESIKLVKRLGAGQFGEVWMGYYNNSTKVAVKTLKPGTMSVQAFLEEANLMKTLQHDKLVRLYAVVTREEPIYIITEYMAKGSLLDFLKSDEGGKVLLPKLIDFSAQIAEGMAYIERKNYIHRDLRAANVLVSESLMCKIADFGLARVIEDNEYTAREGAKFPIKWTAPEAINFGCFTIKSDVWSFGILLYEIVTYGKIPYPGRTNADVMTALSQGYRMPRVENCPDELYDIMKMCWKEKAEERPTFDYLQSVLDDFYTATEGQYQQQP
compound,measurement,setting,value
CS(=O)(=O)c1ccc(-c2cnc(NCc3ccco3)n3cnnc23)cc1 [EED226],IC50,[1],> 100 µM
same,IC50,[2],> 100 µM
same,IC50,[3],> 100 µM
same,IC50,[4],> 100 µM
same,IC50,[5],> 100 µM
same,IC50,[6],> 100 µM
same,IC50,[7],> 100 µM
same,IC50,[8],> 100 µM
same,IC50,[9],> 100 µM
same,IC50,[10],> 30 µM
same,IC50,[11],> 30 µM
same,IC50,[12],> 30 µM
same,IC50,D(1A) dopamine receptor,> 30 µM
same,IC50,[13],> 100 µM
same,IC50,Estrogen receptor,> 30 µM
same,IC50,[14],> 10 µM
same,IC50,[15],> 10 µM
same,IC50,[16],> 30 µM
same,IC50,[17],> 100 µM
same,IC50,[18],> 100 µM
same,IC50,[19],> 10 µM
same,IC50,[20],> 100 µM
same,IC50,[21],> 10 µM
same,IC50,[22],> 10 µM
same,IC50,[23],> 30 µM
same,IC50,[24],> 100 µM
same,IC50,[25],> 100 µM
same,IC50,[26],> 100 µM
same,IC50,[27],> 10 µM
same,IC50,[28],> 10 µM
same,IC50,[29],> 10 µM
same,IC50,[30],> 10 µM
same,IC50,[31],> 10 µM
same,IC50,[32],> 10 µM
same,IC50,[33],> 30 µM
same,IC50,[34],> 10 µM
same,IC50,[35],> 10 µM
same,IC50,[36],> 10 µM
